Source: patent US20140271881A1, “ANTISEPTIC COMPOSITION” (priority 2011, published 2014)

Tests used:
[1] = tested on: acute traumatic or chronic wounds; experiment: Clinical study on 6 dogs with acute traumatic or chronic wounds with delayed healing; format: in vivo
Experimental: A clinical study of the effect of the combination used in the present invention was carried out on 6 dogs carrying inflammatory pathological conditions having led to acute traumatic or chronic wounds caused by lesion due to scratching with delayed healing.
The composition of the invention was applied in spray lotion form, twice a day, directly onto the wound to be treated. The results were observed 1 (D1), 2(D2), 3(D3), 5(D5) and 7(D7) days after the 1st application.

[2] = tested on: traumatic or chronic wounds

## Nc1ccc(S(=O)(=O)Nc2ncccn2)cc1 [sulfadiazine]
[1]; acute or chronic wounds, observed most commonly
  Rapidity of response to the applications: such a rapid response is never observed
[1]; the 6 dogs, before the study
  Effectiveness of treatments carried out previously: ineffective
[2]
  Effectiveness on healing: not very effective
